Reference: ChEMBL document CHEMBL1201862, “PubChem BioAssay data set” (2004)
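Cells were grown in 96-well plates and exposed to each compound for 48 hours at five concentrations; endpoints were interpolated linearly between bracketing concentrations, or set to the highest concentration if not reached. Abbreviation: GI50, concentration required for 50% inhibition of growth.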 Activity calls are given as the source filed them. Cut-off read from the data, not from the text of the source: active = GI50 up to about 1.1 µM and inactive = higher.

Tests used:
Experiment in all cases: NCI anticancer screen, dose series, 48 h
[1] = tested on: HCT-116
[2] = tested on: HOP-92
[3] = tested on: UACC-62
[4] = tested on: CCRF-CEM
[5] = tested on: HCC 2998
[6] = tested on: ACHN
[7] = tested on: RXF 393
[8] = tested on: Malme-3M
[9] = tested on: OVCAR-3
[10] = tested on: COLO 205
[11] = tested on: SF-539
[12] = tested on: SF-295
[13] = tested on: M14
[14] = tested on: SK-OV-3
[15] = tested on: SF-268
[16] = tested on: MDA-MB-435
[17] = tested on: DU-145
[18] = tested on: OVCAR-4
[19] = tested on: PC-3

Measured: GI50

CN1CC[C@]2(C)c3ccc(O)cc3CC3CCCC1C32C (some centres not stated)
inactive: [1] > 100 µM | [2] > 100 µM | [3] > 100 µM | [4] > 100 µM | [5] > 100 µM | [6] > 100 µM | [7] > 100 µM | [8] > 100 µM | [9] > 100 µM | [10] > 100 µM | [11] > 100 µM | [12] > 100 µM | [13] > 100 µM | [14] > 100 µM | [15] > 100 µM

COC1OC(Cc2nnc(C)o2)C(OCc2ccccc2)C(OCc2ccccc2)C1OCc1ccccc1 (configuration not stated)
inactive: [1] 37.4 µM | [2] 35.3 µM | [3] 17 µM | [4] 21.7 µM | [6] 26.6 µM | [7] 18.3 µM | [8] 15.5 µM | [16] 19.7 µM | [17] 40.8 µM | [9] 18.3 µM | [10] 20.7 µM | [11] 38.3 µM | [12] 18.9 µM | [18] 41.4 µM | [13] 31 µM | [14] 77.4 µM | [15] 21.5 µM

CCSC(SCC)c1cc2c(cc1Br)OCO2
inactive: [1] 18.7 µM | [2] 17.8 µM | [3] 28.5 µM | [4] 16.6 µM | [5] 17.8 µM | [6] 40.3 µM | [7] 26.7 µM | [9] 22.9 µM | [10] 15.2 µM | [11] 16.1 µM | [12] 24.5 µM | [18] 57.8 µM | [13] 16.9 µM | [14] 25.2 µM | [15] 35 µM

CC(=O)OCC1OC(n2c(-c3ccc(N)cc3)cc(-c3ccco3)c(C#N)c2=O)C(OC(C)=O)C(OC(C)=O)C1OC(C)=O (configuration not stated)
inactive: [1] 2.3 µM | [2] 4.08 µM | [3] 37.2 µM | [5] > 50 µM | [6] > 50 µM | [7] > 50 µM | [8] > 50 µM | [9] > 50 µM | [10] > 50 µM | [11] 7.62 µM | [12] 28 µM | [18] 38.5 µM | [13] > 50 µM | [14] > 50 µM | [15] 11.5 µM

CCCCCCC(=O)C/C(CCC(=O)N(Cc1ccccc1)Cc1ccccc1)=N\NC(N)=O
inactive: [1] > 100 µM | [2] > 100 µM | [3] > 100 µM | [4] > 100 µM | [5] > 100 µM | [6] > 100 µM | [7] > 100 µM | [8] > 100 µM | [9] > 100 µM | [10] > 100 µM | [11] > 100 µM | [12] > 100 µM | [18] > 100 µM | [13] > 100 µM | [14] > 100 µM | [15] > 100 µM

COC1(OC)CC2C(=O)N(Cc3ccccc3)C1C=C2S(=O)(=O)c1ccccc1 (configuration not stated)
inactive: [1] 13.8 µM | [2] 24.1 µM | [3] 16.7 µM | [4] 14.9 µM | [5] 19.5 µM | [6] 20.8 µM | [7] 12.7 µM | [8] 20.4 µM | [9] 14.8 µM | [10] 10.2 µM | [11] 17 µM | [12] 28.5 µM | [18] 20.5 µM | [13] 16.1 µM | [14] 47.5 µM | [15] 37 µM

COS(=O)c1cc(Cl)cc(Cl)c1OC(=O)CSSCC(=O)Oc1c(Cl)cc(Cl)cc1S(=O)OC (configuration not stated)
inactive: [2] 22.4 µM | [3] 6.97 µM | [4] 19.6 µM | [5] 21.6 µM | [6] 21 µM | [7] 15.3 µM | [8] 15.2 µM | [9] 23.9 µM | [10] 22.6 µM | [11] 13.8 µM | [12] 19.5 µM | [18] 19.3 µM | [13] 18.8 µM | [14] 51.3 µM | [15] 7.26 µM

CCC1CN2CCc3cc(OC)c(OC)cc3C2CC1CC1c2cc(OC)c(OC)cc2CCN1C(=O)C1CCCN1C(=O)OCc1ccccc1 (configuration not stated)
inactive: [1] 13.1 µM | [2] 10.2 µM | [3] 16.1 µM | [5] 16.3 µM | [6] 17.7 µM | [7] 10.4 µM | [8] 18.3 µM | [9] 16.2 µM | [11] 18.7 µM | [12] 16.5 µM | [18] 12.2 µM | [13] 17.1 µM | [15] 17.1 µM

CCN(CC)C(=O)c1c(Cl)cc(N(CC)CC)oc1=O
inactive: [1] > 100 µM | [2] > 100 µM | [3] > 100 µM | [4] > 100 µM | [5] > 100 µM | [6] > 100 µM | [7] > 100 µM | [8] > 100 µM | [9] > 100 µM | [10] > 100 µM | [11] > 100 µM | [12] > 100 µM | [18] > 100 µM | [13] > 100 µM | [14] > 100 µM | [15] > 100 µM

CC(=O)Nc1ccccc1-c1nc2ccccc2nc1-c1ccccc1
inactive: [1] > 100 µM | [2] > 100 µM | [3] > 100 µM | [4] > 100 µM | [5] > 100 µM | [6] > 100 µM | [7] > 100 µM | [9] > 100 µM | [10] > 100 µM | [11] > 100 µM | [12] > 100 µM | [18] > 100 µM | [13] > 100 µM | [14] > 100 µM

COc1cc(O)c2c(c1)C(=O)c1cc3c(c(O)c1C2=O)C(OC1OC(C)C(OC)C(O)C1OC)C(OC)C(C)(O)C3=O (configuration not stated)
inactive: [1] 2.81 µM | [4] 4.1 µM | [5] 5.02 µM | [6] 2.14 µM | [8] 2.39 µM | [16] 3.8 µM | [9] 2.84 µM | [10] 3.09 µM | [11] 3.92 µM | [12] 4.73 µM | [18] 4.03 µM | [13] 3.02 µM | [14] 13.3 µM | [15] 5.55 µM | [19] 3.36 µM

N#C/C(=C\c1ccccc1F)C(=O)c1ccccc1
inactive: [1] > 100 µM | [2] > 100 µM | [3] > 100 µM | [4] > 100 µM | [5] > 100 µM | [6] > 100 µM | [8] > 100 µM | [9] > 100 µM | [10] > 100 µM | [11] > 100 µM | [12] > 100 µM | [18] > 100 µM | [13] > 100 µM | [14] > 100 µM | [15] > 100 µM

N#CC1=C(N)Nc2nc3ccccc3n2C1c1ccccc1 (configuration not stated)
inactive: [1] 29.8 µM | [3] 56.6 µM | [4] 6.44 µM | [6] 23.3 µM | [7] 16.1 µM | [16] 45.6 µM | [17] 35.3 µM | [9] 30.5 µM | [10] > 100 µM | [11] > 100 µM | [12] 27.7 µM | [13] > 100 µM | [14] 83.4 µM | [15] 46.7 µM | [19] 46.1 µM
